Reference: PMC8819291, “Adaptively evolved human oral actinomyces‐sourced defensins show therapeutic potential” (EMBO Molecular Medicine, 2021)
Where two headings read alike, the source gives them in different places. Marks after values point to notes of the source that are not given here. Where a SMILES comes first, the peptide text is derived from it. Bridges are numbered along the chain shown (N, C = ends).

What was measured:
[1] = undiluted human serum (Human Serum AB), 0, 24 and 48 h, 37°C; read-out MRSA P1374, 1.0 nmol/well
hLZc (lysozyme C) = biological target: T1, hLZc (lysozyme C) (Homo sapiens, UniProt P61626); experiment: Bio-affinity ESI-MS for non-covalent complexes; type: binding; conditions: 52.5 μM AMSIN and 50 μM hLZc in 25 mM NH4OAc (pH5.2)
T1 construct: lysozyme C) isolated from human saliva; from tissue; host or cells: human saliva
Protocol: (§1) All components for interactions were dissolved in 25 mM ammonium acetate (pH5.2). Electrospray spectra were recorded with Waters SynaptG2‐Si mass spectrometer (Waters, Manchester, UK) and measurements were performed with positive ESI in resolution mode. Ions were scanned in a mass range of 500–2,000 m/z with the following conditions: the capillary voltage at 1,500 V; the cone voltage at 40 V; the source block temperature at 30°C. Spectra were recorded and processed by the software Masslynx4.1 (Waters, Manchester, UK).

HNP1&2 = HNP1&2 (Homo sapiens, UniProt P59665); experiment: Bio-affinity ESI-MS for non-covalent complexes; type: binding; conditions: 52.5 μM AMSIN and 73.5 μM HNP1&2 in 25 mM NH4OAc (pH5.2)
Protocol: as §1

[2] = 10 μg i.p. once daily for 3 days, serum after 2 days, 1:100 diluted over AMSIN-immobilized CM5 chip
Protocol: Firstly, three female ICR mice (25 g each mouse, 6 weeks of age) were injected intraperitoneally (i.p.) with 10‐μg protein dissolved in 0.9% NaCl once daily (OD) for 3 days. One female ICR mouse of 25 g (6 weeks of age) injected with 0.9% NaCl in the same manner was used as control. Blood samples were then collected from the mouse retro‐orbital plexus after 2 days. Sera were obtained by centrifugation and stored at –20°C until further use. […] In this process, bovine serum albumin (BSA) was added at a final concentration of 0.25 mg/ml to inhibit non‐specific binding. The amount of bound material, if any, was determined by measuring the increase in RUs.

[3] = 37°C
[4] = test system: Staphylococcus aureus J710; experiment: Inhibition-zone assay (lethal concentration); type: cell-based; conditions: Broth Medium, 37°C
Text: (§2) Bacterial media used here included: Luria‐Bertani (LB) medium, THY medium (30 g Todd Hewitt broth and 5 g Yeast extract per liter), and tryptic soy broth (TSB) (Oxoid, Basingstoke, UK); Broth medium and brain–heart infusion (BHI) medium (Beijing Landbridge technology Limited by Share Ltd., Beijing, China); Potato dextrose (PD) medium (self‐prepared).
(§3) In brief, an overnight bacterial culture from a single colony was inoculated into fresh medium and grew to late log‐phase. A 10‐μl aliquot of each culture was diluted in 6‐ml pre‐heated medium containing 0.8% agar. The mixture was spread on a 9‐cm Petri dish, giving a depth of 1 mm. After settling, 3‐mm wells were punched in the plate and then 2‐μl peptide samples of different concentrations were added to each well. The agar plates were incubated overnight at indicated temperatures (Table EV4). A lethal concentration (C L ) was calculated from a plot of d^2 against log n, where d is the diameter (in cm) and n is the amount of sample applied in the well (in nmol). The plot is linear, and thus C L can be calculated from the slope (k) and the intercept (m) of this plot.

[5] = test system: Staphylococcus aureus J706; experiment: Inhibition-zone assay (lethal concentration); type: cell-based; conditions: Broth Medium, 37°C
Text: as §2, §3

[6] = test system: Bacillus subtilis CGMCC 1.2428; experiment: Inhibition-zone assay (lethal concentration); type: cell-based; conditions: LB, 37°C
Text: as §2, §3

[7] = test system: Streptomyces griseus NBRC 13350; experiment: Inhibition-zone assay (lethal concentration); type: cell-based; conditions: PD, 28°C
Text: as §2, §3

[8] = test system: Bacillus megaterium CGMCC 1.0459; experiment: Inhibition-zone assay (lethal concentration); type: cell-based; conditions: LB, 37°C
Text: as §2, §3

[9] = test system: penicillin‐resistant Staphylococcus epidermidis P1389; experiment: Inhibition-zone assay (lethal concentration); type: cell-based; conditions: Broth Medium, 37°C
Text: as §2, §3

[10] = test system: Enterococcus faecalis V583 (ATCC 700802); experiment: Inhibition-zone assay (lethal concentration); type: cell-based; conditions: BHI, 37°C
Text: as §2, §3

[11] = test system: Methicillin‐resistant Staphylococcus aureus P1386; experiment: Inhibition-zone assay (lethal concentration); type: cell-based; conditions: Broth Medium, 37°C
Text: as §2, §3

[12] = test system: Methicillin‐resistant Staphylococcus aureus P1374; experiment: Inhibition-zone assay (lethal concentration); type: cell-based; conditions: Broth Medium, 37°C
Text: as §2, §3

[13] = test system: Streptococcus sanguinis CGMCC 1.2497 (ATCC 49295); experiment: Inhibition-zone assay (lethal concentration); type: cell-based; conditions: Broth Medium, 37°C
Text: as §2, §3

[14] = test system: Streptococcus pneumoniae D39; experiment: Inhibition-zone assay (lethal concentration); type: cell-based; conditions: THY, 5% CO2, 37°C
Text: as §2, §3

[15] = test system: Lysinibacillus fusiformis; experiment: Inhibition-zone assay (lethal concentration); type: cell-based; conditions: Broth Medium, 37°C
Text: as §2, §3

[16] = test system: Streptococcus pneumoniae ST556; experiment: Inhibition-zone assay (lethal concentration); type: cell-based; conditions: THY, 5% CO2, 37°C
Text: as §2, §3

[17] = test system: SSAN (Streptococcus sanguinis); experiment: Analysis of lysis in liquid culture; type: cell-based; conditions: culture at OD600 of 0.2, 5–10 μM AMSIN, 24 h
A549 cells = experiment: Peptide-induced IL-8 release (ELISA); type: cell-based, human; conditions: 24 h
Protocol: A549 and HL‐60 cells were purchased from the Cell Resource Center of the Chinese Academy of Medical Sciences (Beijing, China). They were tested for mycoplasma contamination with the Mycoplasma Detection Kit (Solarbio, China) and only negative cultures were used in our experiments. The cells were cultured in complete Dulbecco’s Modified Eagle Medium (DMEM) supplemented with 10% fetal bovine serum (FBS), penicillin (100 units/ml), and streptomycin ([…]) at 37°C in 5% CO2. The culture medium was changed every 2 days. Cells were passaged every 4–5 days with 0.25% trypsin (Gibco, USA). For enzyme‐linked immunosorbent assay (ELISA) (Hara et al, [2008]), A549 or HL‐60 cells were seeded in six‐well plates at a density of 1 × 10^5 cells/well and were incubated at 37°C in 5% CO2 overnight. Medium was aspirated and replaced with fresh complete DMEM supplemented with 10% FBS or serum‐free medium, both containing different concentrations of polypeptides for 24 h. Then, the supernatants were harvested for quantification of the IL‐8 amount in A549 by the Human CXCL8/IL‐8 Quantikine ELISA Kit (R&D Systems Inc., Minneapolis, MN, USA) and the MCP‐1 amount in HL‐60 by the Human MCP‐1 ELISA Kit (Boster Biological Technology Co., Ltd, Wuhan, China) as per the manufactures’ instructions.

T1 sequence (P61626 19-148): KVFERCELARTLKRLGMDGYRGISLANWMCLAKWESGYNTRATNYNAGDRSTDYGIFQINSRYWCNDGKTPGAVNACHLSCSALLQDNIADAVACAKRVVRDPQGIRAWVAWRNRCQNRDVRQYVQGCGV
Sequence of HNP1&2 (P59665 66-94 limits assumed): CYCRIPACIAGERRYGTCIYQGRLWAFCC

## CC[C@H](C)[C@@H]1NC(=O)[C@H](CCCCN)NC(=O)CNC(=O)[C@H](CCCNC(=N)N)NC(=O)[C@@H]2CSSC[C@H](NC(=O)CNC(=O)[C@H](Cc3ccccc3)NC(=O)CN)C(=O)N3CCC[C@H]3C(=O)N[C@@H](Cc3c[nH]c4ccccc34)C(=O)N[C@@H](CC(N)=O)C(=O)N[C@@H](C)C(=O)N[C@@H](Cc3ccc(O)cc3)C(=O)N[C@@H](CCC(=O)O)C(=O)N[C@H]3CSSC[C@H](NC(=O)[C@H]([C@@H](C)O)NC(=O)[C@H](CCC(N)=O)NC(=O)[C@H](CCCNC(=N)N)NC1=O)C(=O)N[C@@H](Cc1c[nH]cn1)C(=O)N[C@H](C(=O)N[C@@H](Cc1ccc(O)cc1)C(=O)O)CSSC[C@H](NC(=O)[C@H](Cc1c[nH]cn1)NC(=O)[C@H](CCCNC(=N)N)NC(=O)[C@H](CC(=O)O)NC3=O)C(=O)N[C@@H](C(C)C)C(=O)N[C@@H](CO)C(=O)N[C@@H](CCCCN)C(=O)NCC(=O)N[C@@H](Cc1ccc(O)cc1)C(=O)N[C@@H]([C@@H](C)O)C(=O)NCC(=O)NCC(=O)N[C@@H](CC(N)=O)C(=O)N2 [AMSIN] (H-GFGCPWNAYECDRHCVSKGYTGGNCRGKIRQTCHCY-OH; disulfide 4-25, 11-33, 15-35; N-terminus and C-terminus assumed)
[1]
  Activity in serum compared with in H2O: slight decrease
hLZc (lysozyme C)
  Complex formation by ESI-MS: no complex formation
HNP1&2
  Complex formation by ESI-MS: no complex formation
[2]
  Anti-drug antibody in AMSIN-treated mouse serum: no obvious anti‐drug antibody
[3]; 24 h in fresh normal mouse serum without dilution
  Residual antibacterial activity: full antibacterial activity
[3]; undiluted mouse serum, 48‐h study period
  Activity in serum compared with in H2O: slight decrease
[4]
  Lethal concentration (C L): 2.60 µM
[5]
  Lethal concentration (C L): 5.20 µM
[6]
  Lethal concentration (C L): 1.00 µM
[7]
  Lethal concentration (C L): 2.89 µM
[8]; AMSIN alone
  Lethal concentration (C L): 0.11 µM
[8]; In combination with HNP1&2
  Lethal concentration (C L): 0.038 ^a µM
[8]; In combination with hLZc
  Lethal concentration (C L): 0.045 ^b µM
[9]
  Lethal concentration (C L): 1.14 µM
[10]
  Lethal concentration (C L): 4.65 µM
[11]
  Lethal concentration (C L): 0.74 µM
[12]
  Lethal concentration (C L): 0.62 µM
[13]
  Lethal concentration (C L): 1.41 µM
[14]
  Lethal concentration (C L): 0.09 µM
[15]
  Lethal concentration (C L): 0.27 µM
[16]
  Lethal concentration (C L): 0.14 µM
[17]
  Lysis of bacteria: lytic effect
A549 cells; FBS-containing medium, 25 μg/mL, replicate 1
  IL-8: 93 pg/mL
A549 cells; FBS-containing medium, 25 μg/mL, replicate 2
  IL-8: 101 pg/mL
A549 cells; FBS-containing medium, 25 μg/mL, replicate 3
  IL-8: 99 pg/mL
A549 cells; FBS-containing medium, 50 μg/mL, replicate 1
  IL-8: 116 pg/mL
A549 cells; FBS-containing medium, 50 μg/mL, replicate 2
  IL-8: 121 pg/mL
A549 cells; FBS-containing medium, 50 μg/mL, replicate 3
  IL-8: 122 pg/mL
A549 cells; FBS-containing medium, 100 μg/mL, replicate 1
  IL-8: 111 pg/mL
A549 cells; FBS-containing medium, 100 μg/mL, replicate 2
  IL-8: 103 pg/mL
A549 cells; FBS-containing medium, 100 μg/mL, replicate 3
  IL-8: 106 pg/mL
A549 cells; Serum-Free medium, 25 μg/mL, replicate 1
  IL-8: 51 pg/mL
A549 cells; Serum-Free medium, 25 μg/mL, replicate 2
  IL-8: 40 pg/mL
A549 cells; Serum-Free medium, 25 μg/mL, replicate 3
  IL-8: 42 pg/mL
A549 cells; Serum-Free medium, 50 μg/mL, replicate 1
  IL-8: 40 pg/mL
A549 cells; Serum-Free medium, 50 μg/mL, replicate 2
  IL-8: 48 pg/mL
A549 cells; Serum-Free medium, 50 μg/mL, replicate 3
  IL-8: 42 pg/mL
A549 cells; Serum-Free medium, 100 μg/mL, replicate 1
  IL-8: 67 pg/mL
A549 cells; Serum-Free medium, 100 μg/mL, replicate 2
  IL-8: 78 pg/mL
A549 cells; Serum-Free medium, 100 μg/mL, replicate 3
  IL-8: 67 pg/mL
